Data set [1] deals with Alopecurus (Alo). The data set can be described thus: Pre-emergence herbicidal action, greenhouse pot test: Alopecurus. The data set is classed as in vivo. Conditions: 125 g/ha. The procedure: (§1) Monocotyledonous and dicotyledonous weeds and summer wheat (Lona) are sown in standard soil in plastics pots. Directly after sowing, the test compounds are applied as EC 125 and WP 10 (without additional surface-active compounds). The rate of application is 125 g of active substance per ha. The test plants are then grown on in the greenhouse under optimum conditions. Evaluation is carried out 20 days after application: 100 denotes 100% damage to the plant in question.
(§2) Test plants: Agrostis (Agr), Alopecurus (Alo), Phalaris (Pha), Lolium (Lol) and Setaria (Set).

Data set [2] deals with Setaria (Set). The data set is described as follows: Pre-emergence herbicidal action, greenhouse pot test: Setaria. Conditions: 125 g/ha. The class given is in vivo. The procedure:
as §1, §2

In data set [3] the test system is Phalaris (Pha). The data set can be described thus: Pre-emergence herbicidal action, greenhouse pot test: Phalaris. The class given is in vivo. Conditions: 125 g/ha. Here is the method: as §1, §2
Data set [4] concerns Agrostis (Agr). The data set is described as follows: Pre-emergence herbicidal action, greenhouse pot test: Agrostis. The class given is in vivo. To be noted: 125 g/ha. The procedure:
as §1, §2

Data set [5] has as its system Lolium (Lol). The data set is described as follows: Pre-emergence herbicidal action, greenhouse pot test: Lolium. The data set is classed as in vivo. To be noted: 125 g/ha. Here is the method: as §1, §2
Data set [6] relates to summer wheat (Lona). The data set can be described thus: Pre-emergence herbicidal action, greenhouse pot test: damage to summer wheat. The data set is classed as in vivo. Conditions: 125 g/ha. The procedure: as §1, §2
[7] abbreviates: applied directly after sowing as WP 10, evaluation 20 days after application.
The mark [8] stands for this setting: applied directly after sowing as EC 125, evaluation 20 days after application.

Molecule `CCCCCCCCCCCC(=O)Oc1c(-c2c(CC)cc(C)cc2CC)c(=O)n2n1CCOCC2` [1.01] had a melting point of 106 to 107 °C.
On the same count and under the same terms, for `CCCCCCCCCCCCCCCC(=O)Oc1c(-c2c(CC)cc(C)cc2CC)c(=O)n2n1CCOCC2` [1.02] the value was 91 to 92 °C.
In the case of `CCCCCCCC/C=C\CCCCCCCC(=O)Oc1c(-c2c(CC)cc(C)cc2CC)c(=O)n2n1CCOCC2` [compound 1.03], the “Herbicidal action (damage to the plant), Alo” value (“Herbicidal action … Alo” for short) in data set [1] (setting [7]) is given as 90%. Also, the “Herbicidal action (damage to the plant), Set” value (“Herbicidal action … Set” below) in data set [2] (setting [7]) came to 100%. Further, the “Herbicidal action (damage to the plant), Pha” value (shortened to “Herbicidal action … Pha”) in data set [3] (setting [7]) stood at 100%. The “Herbicidal action (damage to the plant), Agr” value (“Herbicidal action … Agr” for short) in data set [4] (setting [7]) came out at 98%. In data set [5] (setting [7]), the “Herbicidal action (damage to the plant), Lol” value (“Herbicidal action … Lol” below) was found to be 90%. Also, the “Herbicidal action (damage to the plant), wheat” value (shortened to “Herbicidal action … wheat”) in data set [6] (setting [7]) is 10%.
For `CCCCCCCC/C=C\CCCCCCCCC(C)(C)C(=O)Oc1c(-c2c(CC)cc(C)cc2CC)c(=O)n2n1CCOCC2` [compound 1.05b], the “Herbicidal action … Alo” value in data set [1] (setting [7]) is given as 80%. In data set [2] (setting [7]), the “Herbicidal action … Set” value is 70%. Further, the “Herbicidal action … Pha” value in data set [3] (setting [7]) is 100%. Besides, in data set [4] (setting [7]), the “Herbicidal action … Agr” value is 80%. In data set [5] (setting [7]), the “Herbicidal action … Lol” value worked out at 70%. Moreover, the “Herbicidal action … wheat” value in data set [6] (setting [7]) is recorded as 0%.
As to `CCCCCCCC/C=C\CCCCCCCCC(C)C(=O)Oc1c(-c2c(CC)cc(C)cc2CC)c(=O)n2n1CCOCC2` (centres unmarked) [compound 1.12b], the “Herbicidal action … Alo” value in data set [1] (setting [7]) was determined as 90%. Moreover, the “Herbicidal action … Set” value in data set [2] (setting [7]) was determined as 90%. Besides, the “Herbicidal action … Pha” value in data set [3] (setting [7]) is given as 100%. The “Herbicidal action … Agr” value in data set [4] (setting [7]) came out at 95%. In data set [5] (setting [7]), the “Herbicidal action … Lol” value is given as 80%. The “Herbicidal action … wheat” value in data set [6] (setting [7]) is 10%.
For `CCc1cc(C)cc(CC)c1C1C(=O)N2CCOCCN2C1=O` [compound A, 8-(2,6-diethyl-4-methyl-phenyl)-tetrahydropyrazolo[1,2-d][1,4,5]oxadiazepine-7,9-dione, reference compound], the “Herbicidal action … Alo” value in data set [1] (setting [8]) was determined as 100%. In addition, the “Herbicidal action … Set” value in data set [2] (setting [8]) worked out at 100%. In data set [3] (setting [8]), the “Herbicidal action … Pha” value was 100%. The “Herbicidal action … Agr” value in data set [4] (setting [8]) was found to be 95%. In addition, in data set [5] (setting [8]), the “Herbicidal action … Lol” value is on record as 98%. The “Herbicidal action … wheat” value in data set [6] (setting [8]) is listed as 20%.
